{"source": "paper PMC5548696", "about": "(Bioorganic & medicinal chemistry letters, 2017)", "key": {"Recombinant human ENGase": {"target": "T1, Recombinant human ENGase (Homo sapiens, UniProt Q8NFI3)", "T1 sequence (Q8NFI3 1-743)": "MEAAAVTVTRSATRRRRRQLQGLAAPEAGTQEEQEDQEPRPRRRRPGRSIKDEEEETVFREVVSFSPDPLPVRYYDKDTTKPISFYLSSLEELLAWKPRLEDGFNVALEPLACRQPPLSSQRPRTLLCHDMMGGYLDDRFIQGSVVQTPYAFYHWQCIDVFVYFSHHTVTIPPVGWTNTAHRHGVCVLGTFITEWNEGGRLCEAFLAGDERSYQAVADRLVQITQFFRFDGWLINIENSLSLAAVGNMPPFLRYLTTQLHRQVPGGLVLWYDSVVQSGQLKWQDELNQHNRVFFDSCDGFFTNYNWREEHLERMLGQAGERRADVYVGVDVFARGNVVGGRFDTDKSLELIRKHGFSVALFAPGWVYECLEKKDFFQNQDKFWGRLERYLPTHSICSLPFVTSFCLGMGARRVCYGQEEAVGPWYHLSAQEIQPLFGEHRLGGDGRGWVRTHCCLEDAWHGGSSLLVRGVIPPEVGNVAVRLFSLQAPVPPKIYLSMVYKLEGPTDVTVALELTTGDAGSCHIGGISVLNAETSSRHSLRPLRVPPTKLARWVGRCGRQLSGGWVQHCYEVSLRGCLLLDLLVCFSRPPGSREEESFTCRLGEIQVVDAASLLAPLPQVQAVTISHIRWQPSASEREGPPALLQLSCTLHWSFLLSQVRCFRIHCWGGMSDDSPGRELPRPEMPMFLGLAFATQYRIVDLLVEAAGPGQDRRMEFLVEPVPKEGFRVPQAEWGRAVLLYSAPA", "assay_type": "biochemical", "conditions": "100 μM drug concentration; first round, 13 drugs"}, "H+/K+ ATPase": {"system": "H+/K+ ATPase", "conditions": "cited from earlier work"}, "human ENGase": {"target": "human ENGase", "conditions": "read-out: IC50, human ENGase inhibitors; earlier reports; cited from earlier work"}}, "data": [{"compound": "Cc1c(OCC(F)(F)F)ccnc1C[S+]([O-])c1nc2ccccc2[nH]1", "note": "(stereo not drawn) [Lansoprazole]", "values": [{"measurement": "inhibition of ENGase enzyme activity, preliminary ENGase inhibitor screening", "setting": "Recombinant human ENGase", "result": "inhibited ENGase enzyme activity"}]}, {"compound": "COCCCOc1ccnc(C[S+]([O-])c2nc3ccccc3[nH]2)c1C", "note": "(stereo not drawn) [Rabeprazole]", "values": [{"measurement": "target affinity", "setting": "H+/K+ ATPase", "result": "~ 70 nM"}]}, {"compound": "Man9GlcNAc-thiazoline", "values": [{"measurement": "IC50", "setting": "human ENGase", "result": 420, "unit": "nM"}]}]}
